Experimental data from patent US8455475B2 (Gruenenthal GmbH, priority 2009, dated 2013).

Tests used:
[1] = biological target: T1, rat B1R (bradykinin receptor 1) (Rattus norvegicus, UniProt P97583); experiment: FLIPR Ca2+ assay (Fluo-4) on CHO K1 cells stably transfected with the B1R gene of the rat (rB1R cells): % inhibition at 10 μM / IC50, agonist Des-Arg9-bradykinin; format: cell-based; details: for inhibition at 10 µM: CHO-K1, rat B1R
T1 construct: expressed in transfected cells; host or cells: CHO K1 cells
T1 sequence (P97583 1-337): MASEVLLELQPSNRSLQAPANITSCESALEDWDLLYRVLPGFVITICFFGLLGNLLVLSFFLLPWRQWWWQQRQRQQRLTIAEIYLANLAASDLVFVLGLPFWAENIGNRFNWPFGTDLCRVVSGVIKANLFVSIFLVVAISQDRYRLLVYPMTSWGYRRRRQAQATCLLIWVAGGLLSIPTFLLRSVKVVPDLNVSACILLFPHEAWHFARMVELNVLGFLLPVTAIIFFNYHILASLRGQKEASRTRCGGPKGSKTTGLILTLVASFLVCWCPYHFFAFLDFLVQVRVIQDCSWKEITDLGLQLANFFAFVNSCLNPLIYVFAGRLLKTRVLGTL
Method in brief: (§1)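 Using a two-addition FLIPR protocol, compound (10 μM for % values; concentration series for IC50) was preincubated 10–20 min with Fluo-4-loaded B1R-expressing CHO K1 cells before EC80 agonist challenge. Suppression of Ca2+ inflow, read as peak fluorescence, is expressed relative to maximum achievable inhibition; duplicate/triplicate, ≥2 independent experiments.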

[2] = biological target: T2, human B1R (bradykinin receptor 1) (Homo sapiens, UniProt P46663); experiment: FLIPR Ca2+ assay (Fluo-4) on CHO K1 cells stably transfected with the human B1R gene (hB1R cells): % inhibition at 10 μM / IC50, agonist Lys-Des-Arg9-bradykinin; format: cell-based; details: for inhibition at 10 µM: CHO-K1, human B1R
T2 construct: expressed in transfected cells; host or cells: CHO K1 cells
T2 sequence (P46663 1-353): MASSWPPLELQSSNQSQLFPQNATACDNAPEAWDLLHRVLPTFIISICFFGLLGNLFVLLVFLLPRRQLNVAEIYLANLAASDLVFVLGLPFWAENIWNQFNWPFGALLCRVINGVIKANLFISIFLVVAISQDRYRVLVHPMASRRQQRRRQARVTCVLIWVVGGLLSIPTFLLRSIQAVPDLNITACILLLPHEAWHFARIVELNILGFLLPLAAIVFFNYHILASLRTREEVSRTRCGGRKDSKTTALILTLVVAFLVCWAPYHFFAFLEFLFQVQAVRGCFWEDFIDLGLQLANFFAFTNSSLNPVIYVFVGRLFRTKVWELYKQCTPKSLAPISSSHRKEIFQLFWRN
Method in brief: as §1

Compound	inhibition at 10 µM [1]	inhibition at 10 µM [2]	% Inhibition (rat B1R) at 10 μM ([1]; rat B1R, 10 µM)	% Inhibition (human B1R) at 10 μM ([2]; human B1R, 10 µM)
COc1cc(C)c(C(=O)NC2CCc3ccc(C(=O)N4CCC5(CC4)CCN(c4ccncc4)C5)cc32)c(C)c1 (stereo not shown) [Ind_CC-094, 4-methoxy-2,6-dimethyl-N-[6-(2-pyridin-4-yl-2,8-diazaspiro[4.5]decane-8-carbonyl)-2,3-dihydro-1H-inden-1-yl]-benzamide]	65%	42%	–	–
O=C(NC1CCc2ccc(C(=O)N3CCC4(CCN(Cc5ccncc5)CC4)CC3)cc21)c1ccccc1Cl (stereo not shown) [Ind_CC-098, 2-chloro-N-[6-[9-(pyridin-4-yl-methyl)-3,9-diazaspiro[5.5]undecane-3-carbonyl]-2,3-dihydro-1H-inden-1-yl]-benzamide]	98%	34%	–	–
CN(C)C1(c2ccc(F)cc2)CCC2(CCN(C(=O)c3ccc4c(c3)C(NC(=O)c3ccccc3Cl)CC4)CC2)CC1 (stereo not shown) [Ind_CC-099, 2-chloro-N-[6-[9-dimethylamino-9-(4-fluorophenyl)-3-azaspiro[5.5]undecane-3-carbonyl]-2,3-dihydro-1H-inden-1-yl]-benzamide]	103%	39%	–	–
O=C(NC1CCc2ccc(C(=O)N3CCC4(CCN(c5ccncc5)CC4)C3)cc21)c1ccccc1Cl (stereo not shown) [Ind_CC-100, 2-chloro-N-[6-(8-pyridin-4-yl-2,8-diazaspiro[4.5]decane-2-carbonyl)-2,3-dihydro-1H-inden-1-yl]-benzamide]	104%	100%	–	–
CN(C)C1(c2ccc(F)cc2)CCC2(CCN(C(=O)c3ccc4c(c3)C(NC(=O)c3sccc3Cl)CC4)CC2)CC1 (stereo not shown) [Ind_CC-105, 3-chloro-N-[6-[9-dimethylamino-9-(4-fluorophenyl)-3-azaspiro[5.5]undecane-3-carbonyl]-2,3-dihydro-1H-inden-1-yl]-thiophene-2-carboxylic acid amide]	86%	61%	–	–
CN(C(=O)c1ccccc1Cl)C1CCc2ccc(C(=O)N3CCC4(CC3)CCN(c3ccncc3)CC4)cc21 (stereo not shown) [Ind_CC-106, 2-chloro-N-methyl-N-[6-(9-pyridin-4-yl-3,9-diazaspiro[5.5]undecane-3-carbonyl)-2,3-dihydro-1H-inden-1-yl]-benzamide]	100%	100%	–	–
CN(C(=O)c1ccccc1Cl)C1CCc2ccc(C(=O)N3CCC4(CC3)CCN(c3ccc(F)cc3)CC4)cc21 (stereo not shown) [Ind_CC-108, 2-chloro-N-[6-[9-(4-fluorophenyl)-3,9-diazaspiro[5.5]undecane-3-carbonyl]-2,3-dihydro-1H-inden-1-yl]-N-methyl-benzamide]	51%	23%	–	–
CN(C(=O)c1ccccc1Cl)C1CCc2ccc(C(=O)N3CCC4(CCN(Cc5ccncc5)CC4)CC3)cc21 (stereo not shown) [Ind_CC-109, 2-chloro-N-methyl-N-[6-[9-(pyridin-4-yl-methyl)-3,9-diazaspiro[5.5]undecane-3-carbonyl]-2,3-dihydro-1H-inden-1-yl]-benzamide]	29%	33%	–	–
CN(C(=O)c1ccccc1Cl)C1CCc2ccc(C(=O)N3CCC4(CC3)CCC(c3ccc(F)cc3)(N(C)C)CC4)cc21 (stereo not shown) [Ind_CC-110, 2-chloro-N-[6-[9-dimethylamino-9-(4-fluorophenyl)-3-azaspiro[5.5]undecane-3-carbonyl]-2,3-dihydro-1H-inden-1-yl]-N-methyl-benzamide]	79%	52%	–	–
CN(C(=O)c1ccccc1Cl)C1CCc2ccc(C(=O)N3CCC4(CCN(c5ccncc5)CC4)C3)cc21 (stereo not shown) [Ind_CC-111, 2-chloro-N-methyl-N-[6-(8-pyridin-4-yl-2,8-diazaspiro[4.5]decane-2-carbonyl)-2,3-dihydro-1H-inden-1-yl]-benzamide]	101%	100%	–	–
CN(C(=O)c1ccccc1Cl)C1CCc2ccc(C(=O)N3CCC4(CC3)CCN(c3ccncc3)C4)cc21 (stereo not shown) [Ind_CC-112, 2-chloro-N-methyl-N-[6-(2-pyridin-4-yl-2,8-diazaspiro[4.5]decane-8-carbonyl)-2,3-dihydro-1H-inden-1-yl]-benzamide]	104%	100%	–	–
O=C(c1ccc2c(c1)C(N(C(=O)c1ccccc1Cl)C1CC1)CC2)N1CCC2(CC1)CCN(c1ccncc1)CC2 (stereo not shown) [Ind_CC-113, 2-chloro-N-cyclopropyl-N-[6-(9-pyridin-4-yl-3,9-diazaspiro[5.5]undecane-3-carbonyl)-2,3-dihydro-1H-inden-1-yl]-benzamide]	100%	98%	–	–

Further lines, results first:

inhibition at 10 µM [1]	inhibition at 10 µM [2]	% Inhibition (rat B1R) at 10 μM ([1]; rat B1R, 10 µM)	% Inhibition (human B1R) at 10 μM ([2]; human B1R, 10 µM)	Compound
–	–	99%	99%	O=C(NC1CCc2ccc(C(=O)N3CCC4(CC3)CCN(c3ccncc3)CC4)cc21)c1ccccc1Cl (stereo not shown) [Ind_CC-095, 2-chloro-N-[6-(9-pyridin-4-yl-3,9-diazaspiro[5.5]undecane-3-carbonyl)-2,3-dihydro-1H-inden-1-yl]-benzamide]
101%	91%	–	–	O=C(NC1CCc2ccc(C(=O)N3CCC4(CC3)CCN(c3cccnc3)CC4)cc21)c1ccccc1Cl (stereo not shown) [Ind_CC-096, 2-chloro-N-[6-(9-pyridin-3-yl-3,9-diazaspiro[5.5]undecane-3-carbonyl)-2,3-dihydro-1H-inden-1-yl]-benzamide]
90%	33%	–	–	O=C(NC1CCc2ccc(C(=O)N3CCC4(CC3)CCN(c3ccc(F)cc3)CC4)cc21)c1ccccc1Cl (stereo not shown) [Ind_CC-097, 2-chloro-N-[6-[9-(4-fluorophenyl)-3,9-diazaspiro[5.5]undecane-3-carbonyl]-2,3-dihydro-1H-inden-1-yl]-benzamide]
102%	100%	–	–	O=C(NC1CCc2ccc(C(=O)N3CCC4(CC3)CCN(c3ccncc3)C4)cc21)c1ccccc1Cl (stereo not shown) [Ind_CC-101, 2-chloro-N-[6-(2-pyridin-4-yl-2,8-diazaspiro[4.5]decane-8-carbonyl)-2,3-dihydro-1H-inden-1-yl]-benzamide]
100%	87%	–	–	O=C(NC1CCc2ccc(C(=O)N3CCC4(CC3)CCN(c3cccnc3)CC4)cc21)c1sccc1Cl (stereo not shown) [Ind_CC-102, 3-chloro-N-[6-(9-pyridin-3-yl-3,9-diazaspiro[5.5]undecane-3-carbonyl)-2,3-dihydro-1H-inden-1-yl]-thiophene-2-carboxylic acid amide]
62%	93%	–	–	O=C(NC1CCc2ccc(C(=O)N3CCC4(CC3)CCN(c3ccc(F)cc3)CC4)cc21)c1sccc1Cl (stereo not shown) [Ind_CC-103, 3-chloro-N-[6-[9-(4-fluorophenyl)-3,9-diazaspiro[5.5]undecane-3-carbonyl]-2,3-dihydro-1H-inden-1-yl]-thiophene-2-carboxylic acid amide]
102%	33%	–	–	O=C(NC1CCc2ccc(C(=O)N3CCC4(CCN(Cc5ccncc5)CC4)CC3)cc21)c1sccc1Cl (stereo not shown) [Ind_CC-104, 3-chloro-N-[6-[9-(pyridin-4-yl-methyl)-3,9-diazaspiro[5.5]undecane-3-carbonyl]-2,3-dihydro-1H-inden-1-yl]-thiophene-2-carboxylic acid amide]
100%	78%	–	–	CN(C(=O)c1ccccc1Cl)C1CCc2ccc(C(=O)N3CCC4(CC3)CCN(c3cccnc3)CC4)cc21 (stereo not shown) [Ind_CC-107, 2-chloro-N-methyl-N-[6-(9-pyridin-3-yl-3,9-diazaspiro[5.5]undecane-3-carbonyl)-2,3-dihydro-1H-inden-1-yl]-benzamide]
